The record followed here is US10105357B2, “Indication of antibiotic drugs for preparation of cancer inhibition pharmaceutical composition” (LAUNX BIOMEDICAL CO., LTD., priority 2014, dated 2018).

Common to all, as to format: cell-based, human
One experiment relates to cancer cell lines. Put plainly: Cell viability analysis (WST-1) on cancer cell lines. The following applies: drug 10 μM, 72 hours, WST-1; Table 3. For orientation: Tetrazolium assays rely on reduction of a dye to a coloured formazan, in cell work by metabolically active cells.
The subject of experiment [1] is TSGH-8301 (Urinary Bladder Carcinoma). The experiment in a line: Cell viability analysis, bladder cancer TSGH-8301. The following applies: Homo sapiens.
Experiment [2] relates to HL-60 (Acute Promyelocytic Leukemia). The experiment in a line: Cell viability analysis, leukemia HL-60. The following applies: Homo sapiens.
For experiment [3], the system named is HI650 (Lung Adenocarcinoma). Put plainly: Cell viability analysis, lung cancer HI650. The following applies: Homo sapiens.
In experiment [4] the test system is HeLa (Cervix Adenocarcinoma). Put plainly: Cell viability analysis, cervical cancer HeLa. The following applies: Homo sapiens, HeLa.
Experiment [5] deals with LoVo (Colorectal Adenocarcinoma). The experiment in a line: Cell viability analysis, colon cancer LoVo. The following applies: Homo sapiens, LoVo.
The test system of experiment [6] is HepG2 (Hepatocellular Carcinoma). The experiment in a line: Cell viability analysis, hepatic cancer HepG2. The following applies: Homo sapiens.
Experiment [7] deals with A375 (Amelanotic Melanoma). The experiment in a line: Cell viability analysis, skin cancer A375. The following applies: Homo sapiens.
For experiment [8], the system named is AGS (Gastric Adenocarcinoma). The experiment in a line: Cell viability analysis, gastric cancer AGS. The following applies: Homo sapiens.
In experiment [9] the test system is MCF7 (Mammary Gland, Adenocarcinoma). Put plainly: Cell viability analysis, breast cancer MCF7. The following applies: Homo sapiens.
The test system of experiment [10] is MKN-45 (Gastric Adenocarcinoma). The experiment in a line: Cell viability analysis, gastric cancer MKN-45. The following applies: Homo sapiens.
Experiment [11] relates to A549 (Lung Adenocarcinoma). The experiment in a line: Cell viability analysis, lung cancer A549. The following applies: Homo sapiens.
Setting [12] is: 72 h, read-out: cell viability (survival rate), TSGH, drug 10 μM, 72 hours, WST-1, OD450 nm.
Setting [13] is: HL-60, 72 h, read-out: cell viability (survival rate), HL-60, drug 10 μM, 72 hours, WST-1, OD450 nm.
Where [14] appears, read: NCI-H1650, 72 h, read-out: cell viability (survival rate), H1650, drug 10 μM, 72 hours, WST-1, OD450 nm.
The mark [15] stands for this setting: 72 h, read-out: cell viability (survival rate), HeLa, drug 10 μM, 72 hours, WST-1, OD450 nm.
The mark [16] stands for this setting: 72 h, read-out: cell viability (survival rate), LoVo, drug 10 μM, 72 hours, WST-1, OD450 nm.
[17] abbreviates: HepG2, 72 h, read-out: cell viability (survival rate), HepG2, drug 10 μM, 72 hours, WST-1, OD450 nm.
Where [18] appears, read: A-375, 72 h, read-out: cell viability (survival rate), A375, drug 10 μM, 72 hours, WST-1, OD450 nm.
[19] abbreviates: 72 h, read-out: cell viability (survival rate), AGS, drug 10 μM, 72 hours, WST-1, OD450 nm.
The mark [20] stands for this setting: MCF7, 72 h, read-out: cell viability (survival rate), MCF7, drug 10 μM, 72 hours, WST-1, OD450 nm.
The mark [21] stands for this setting: MKN-45, 72 h, read-out: cell viability (survival rate), MKN-45, drug 10 μM, 72 hours, WST-1, OD450 nm.
Setting [22] is: A549, 72 h, read-out: cell viability (survival rate), A549, drug 10 μM, 72 hours, WST-1, OD450 nm.

Read-outs that look alike come from different tables or passages of the source.

In general, viability refers to a read-out of living cells in per cent, often relative to untreated cells. For the molecule `CCn1cc(C(=O)O)c(=O)c2ccc(C)nc21` [Nalidixic acid (NegGram), Nalidixic acid], in the experiment with cancer cell lines, the “inhibition effect on different cancer cell lines” value was “significant inhibition effect”. The viability at 10 µM in experiment [1] (setting [12]) stood at 46.3%; in experiment [2] (setting [13]) it was 113%; in [3] (setting [14]), 72%; in experiment [4] (setting [15]), 95.8%; in experiment [5] (setting [16]), 91.5%; in [6] (setting [17]) it was 96.8%. Also, the viability at 10 µM in [7] (setting [18]) is 87.9%; in [8] (setting [19]) it was 57.3%; in experiment [9] (setting [20]), 86%; in experiment [10] (setting [21]) it was 54.9%; in experiment [11] (setting [22]), 83.8%.
On to `Clc1ccc(C(Cn2ccnc2)OCc2csc3c(Cl)cccc23)c(Cl)c1` (stereo not drawn) [Sertaconazole nitrate], for which, in the experiment on cancer cell lines, the “inhibition effect on different cancer cell lines” value was “significant inhibition effect”. For the same molecule, the viability at 10 µM in [1] (setting [12]) was determined as 89.4%; in experiment [2] (setting [13]), 73.4%; in experiment [3] (setting [14]), 96.3%; in [4] (setting [15]) it was 58.9%; in experiment [5] (setting [16]), 94.9%; in experiment [6] (setting [17]) it was 77.4%. Also, the viability at 10 µM is 52% in experiment [7] (setting [18]); 97.1% in experiment [8] (setting [19]); 76.4% in experiment [9] (setting [20]); 69.5% in experiment [10] (setting [21]); 75.4% in experiment [11] (setting [22]).
Turning to `[H]/N=C(/N)NS(=O)(=O)c1ccc(N)cc1` [Sulfaguanidine], in the experiment on cancer cell lines, the “inhibition effect on different cancer cell lines” value is listed as “significant inhibition effect”. Also, the viability at 10 µM in experiment [1] (setting [12]) turned out to be 107%; in [2] (setting [13]), 99.1%; in experiment [3] (setting [14]) it was 95.6%; in experiment [4] (setting [15]) it was 113%; in experiment [5] (setting [16]), 78.9%; in [6] (setting [17]), 96.1%. In addition, the viability at 10 µM in experiment [7] (setting [18]) turned out to be 145%; in [8] (setting [19]) it was 84%; in [9] (setting [20]) it was 92.6%; in experiment [10] (setting [21]) it was 83.5%; in experiment [11] (setting [22]) it was 82.2%.
Take `C=C(NC(=O)C(=C)NC(=O)c1csc(C2=N[C@@H]3c4csc(n4)[C@H]4NC(=O)c5csc(n5)[C@H]([C@](C)(O)[C@@H](C)O)NC(=O)[C@H]5CSC(=N5)/C(=C/C)NC(=O)[C@H]([C@@H](C)O)NC(=O)c5csc(n5)[C@]3(CC2)NC(=O)[C@H](C)NC(=O)C(=C)NC(=O)[C@H](C)NC(=O)[C@H]([C@@H](C)CC)N[C@@H]2C=Cc3c([C@H](C)O)cc(nc3[C@H]2O)C(=O)O[C@@H]4C)n1)C(N)=O` [Thiostrepton]: in the experiment on cancer cell lines, the “inhibition effect on different cancer cell lines” value is reported as “significant inhibition effect”. For the same molecule, the viability at 10 µM in [1] (drug 10 μM, 72 hours, WST-1, OD450 nm, read-out: cell viability (survival rate), TSGH) came to 20.1%; in experiment [2] (HL-60, drug 10 μM, 72 hours, WST-1, OD450 nm, read-out: cell viability (survival rate), HL-60), 37.8%; in [3] (NCI-H1650, drug 10 μM, 72 hours, WST-1, OD450 nm, read-out: cell viability (survival rate), H1650), 45.4%; in experiment [4] (drug 10 μM, 72 hours, WST-1, OD450 nm, read-out: cell viability (survival rate), HeLa), 37.8%; in [5] (drug 10 μM, 72 hours, WST-1, OD450 nm, read-out: cell viability (survival rate), LoVo), 52.9%; in [6] (HepG2, drug 10 μM, 72 hours, WST-1, OD450 nm, read-out: cell viability (survival rate), HepG2), 49.2%. Besides, the viability at 10 µM was found to be 27.6% in experiment [7] (A-375, drug 10 μM, 72 hours, WST-1, OD450 nm, read-out: cell viability (survival rate), A375); 25.7% in experiment [8] (drug 10 μM, 72 hours, WST-1, OD450 nm, read-out: cell viability (survival rate), AGS); 65% in experiment [9] (MCF7, drug 10 μM, 72 hours, WST-1, OD450 nm, read-out: cell viability (survival rate), MCF7); 56.7% in experiment [10] (MKN-45, drug 10 μM, 72 hours, WST-1, OD450 nm, read-out: cell viability (survival rate), MKN-45); 62.2% in experiment [11] (A549, drug 10 μM, 72 hours, WST-1, OD450 nm, read-out: cell viability (survival rate), A549).
With `Nc1ccn([C@H]2CC[C@@H](CO)O2)c(=O)n1` [Zalcitabine], the “inhibition effect on different cancer cell lines” value in the experiment with cancer cell lines is given as “significant inhibition effect”. The viability at 10 µM in experiment [1] (setting [12]) came to 79%; in [2] (setting [13]), 119%; in [3] (setting [14]), 86.4%; in experiment [4] (setting [15]) it was 89.2%; in experiment [5] (setting [16]), 91%; in experiment [6] (setting [17]), 96.9%. Further, the viability at 10 µM is 83.5% in experiment [7] (setting [18]); 69.1% in [8] (setting [19]); 52.7% in experiment [9] (setting [20]); 70.4% in experiment [10] (setting [21]); 66.3% in [11] (setting [22]).
